Reference: patent publication US4169096A, “Antibiotic compounds” (priority 1977, dated 1979)
Values after ≈ are worked out from the molar mass of the structure shown. Like-named read-outs stand apart in the source and are kept apart here.

What was measured:
[1] = test system: Klebsiella pneumoniae A9678; assay: MIC, serial two-fold agar dilution, aerobic bacteria; assay type: cell-based
[2] = test system: Serratia marcescens A20019; assay: as above; assay type: cell-based
[3] = test system: Pseudomonas aeruginosa A9843; assay: as above; assay type: cell-based; settings: test medium not given
[4] = test system: Proteus mirabilis A9554; assay: as above; assay type: cell-based; settings: Nutrient agar (Eiken)
[5] = test system: Proteus morganii A9553; assay: as above; assay type: cell-based; settings: Morganella morganii, Nutrient agar (Eiken)
[6] = test system: Staphylococcus aureus 209P; assay: as above; assay type: cell-based; settings: Nutrient agar (Eiken)
[7] = test system: Staphylococcus aereus Smith; assay: as above; assay type: cell-based; settings: Nutrient agar (Eiken), read-out: MIC
[8] = test system: Staphylococcus aureus #52-34; assay: as above; assay type: cell-based; settings: Nutrient agar (Eiken), read-out: MIC
[9] = test system: Bacillus subtilis PCI-219; assay: as above; assay type: cell-based; settings: PCI219, Nutrient agar (Eiken), read-out: MIC
[10] = test system: Neisseria meningitidis A20049; assay: as above; assay type: cell-based
[11] = test system: Neisseria gonorrhoeae A15112; assay: as above; assay type: cell-based; settings: GC medium (Eiken)
[12] = test system: Neisseria gonorrhoeae A20154; assay: as above; assay type: cell-based; settings: GC medium (Eiken)
[13] = test system: Hemophilus influenzae A20188; assay: as above; assay type: cell-based; settings: Haemophilus influenzae, GC medium (Eiken)
[14] = test system: Peptostreptococcus anaerobius B43; assay type: cell-based; settings: GAM agar medium (Nissui)
[15] = test system: C. perfringens A9635; assay: microbe, parasite or virus in culture; assay type: cell-based, Clostridium perfringens; settings: inoculum size 7 × 10^6 cell/ml
[16] = test system: B. fragilis A20928-1; assay: Bactericidal activity (MIC & MBC); assay type: cell-based; settings: Bacteroides fragilis, A209281; inoculum size 2.8 × 10^6 cell/ml; broth
[17] = test system: C. perfringens A9635; assay: microbe, parasite or virus in culture; assay type: cell-based; settings: Clostridium perfringens, A9635, 18 h
[18] = test system: S. pyogenes A20201; assay: Bactericidal activity (MIC & MBC); assay type: cell-based; settings: Streptococcus pyogenes, A20201, inoculum size 6 × 10^5 cell/ml
[19] = test system: B. fragilis A20926; assay: Localized infection with B. fragilis in mice; assay type: in vivo; settings: for mean score: control 4.2; for sum of score: control 21; for infectivity level: control 100%
[20] = test system: C. perfringens A9635; assay: animal or person; assay type: in vivo, mice; settings: Clostridium perfringens, A9635, in Mus musculus, 120 h, read-out: PD50
[21] = test system: S. pyogenes A20201; assay: Systemic infection with S. pyogenes in mice; assay type: in vivo; settings: Streptococcus pyogenes, A20201, 120 h, just before challenge, determined after 5 days, read-out: PD50
[22] = test system: C. perfringens or S. pyrogenes; assay type: in vivo, mice; settings: mouse, in vivo
[23] = test system: Bacteroides fragilis A20929; assay: microbe, parasite or virus in culture
[24] = test system: Bacteroides fragilis A20930; assay: microbe, parasite or virus in culture
[25] = test system: Bacteroides fragilis A20932; assay: microbe, parasite or virus in culture
[26] = test system: Sphaerophorus pseudonecrophorus A20013; assay: microbe, parasite or virus in culture; settings: Fusobacterium necrophorum
[27] = test system: Fusobacterium mortiferum ATCC 9817; assay: microbe, parasite or virus in culture; settings: ATCC9817
[28] = test system: Fusobacterium varium ATCC 8501; assay: microbe, parasite or virus in culture; settings: ATCC8501
[29] = test system: Acidoaminococcus fermentans ATCC 25085; assay: microbe, parasite or virus in culture
[30] = test system: Veillonella parvula ATCC 17745; assay: microbe, parasite or virus in culture; settings: ATCC17745
[31] = test system: Clostridium caproicum IAM 19228; assay: microbe, parasite or virus in culture; settings: IAM19228
[32] = test system: Peptocuccus prevotii ATCC 9321; assay: microbe, parasite or virus in culture
[33] = test system: Peptococcus aerogenes ATCC 14963; assay: microbe, parasite or virus in culture; settings: Peptoniphilus asaccharolyticus, ATCC14963
[34] = subcutaneous or oral
[35] = in vivo; settings: mouse

CCC[C@@H]1C[C@@H](C(=O)N[C@@H]([C@H]2O[C@H](SC)[C@H](O)[C@@H](O)[C@H]2O)[C@H](C)Cl)N(C)C1 [Clindamycin]
MIC [1]: 100 µg/mL (≈ 235 µM) | MIC [2]: 50 µg/mL (≈ 118 µM) | MIC [3]: > 100 µg/mL | MIC [4]: 100 µg/mL (≈ 235 µM) | MIC [5]: 100 µg/mL (≈ 235 µM) | MIC [6]: 0.1 µg/mL (≈ 0.235 µM) | MIC [7]: 0.1 µg/mL (≈ 0.235 µM) | MIC [8]: 0.1 µg/mL (≈ 0.235 µM) | MIC [9]: 0.8 µg/mL (≈ 1.88 µM) | MIC [10]: 0.05 µg/mL (≈ 0.118 µM) | MIC [11]: 0.2 µg/mL (≈ 0.471 µM) | MIC [12]: 0.2 µg/mL (≈ 0.471 µM) | MIC [13]: 0.8 µg/mL (≈ 1.88 µM) | MIC [14]: 0.8 µg/mL (≈ 1.88 µM) | MIC in GAM agar [15]: 0.0125 µg/mL (≈ 0.0294 µM) | MIC [16]: 0.05 µg/mL (≈ 0.118 µM) | MBC [17]: 0.05 µg/mL (≈ 0.118 µM) | MIC ([18]; broth): 0.05 µg/mL (≈ 0.118 µM) | MBC ([18]; growth of less than 100 colonies per plate, 18 hours at 37° C., read-out: MBC): 6.3 µg/mL (≈ 14.8 µM) | comparative in vivo activity ([19]; B. fragilis localized infection): more active than Bu-2313B or Flagyl | mean score ([19]; oral, 6.3 × 5 mg/kg): 2.6 | sum of score ([19]; oral, 6.3 × 5 mg/kg): 13 | infectivity level ([19]; oral, 6.3 × 5 mg/kg): 61.9% | mean score ([19]; oral, 25 × 5 mg/kg): 1.8 | sum of score ([19]; oral, 25 × 5 mg/kg): 9 | infectivity level ([19]; oral, 25 × 5 mg/kg): 42.9% | sum of score ([19]; oral, 100 × 5 mg/kg): 2 | infectivity level ([19]; oral, 100 × 5 mg/kg): 9.5% | mean score ([19]; oral, […] 5 mg/kg): 4.0 | sum of score ([19]; oral, […] 5 mg/kg): 20 | infectivity level ([19]; oral, […] 5 mg/kg): 95.2% | mean score ([19]; subcutaneous, 0.8 × 5 mg/kg): 4.0 | sum of score ([19]; subcutaneous, 0.8 × 5 mg/kg): 20 | infectivity level ([19]; subcutaneous, 0.8 × 5 mg/kg): 95.2% | mean score ([19]; subcutaneous, 3.1 × 5 mg/kg): 2.0 | sum of score ([19]; subcutaneous, 3.1 × 5 mg/kg): 10 | infectivity level ([19]; subcutaneous, 3.1 × 5 mg/kg): 47.6% | mean score ([19]; subcutaneous, 50 × 5 mg/kg): 0.8 | sum of score ([19]; subcutaneous, 50 × 5 mg/kg): 4 | infectivity level ([19]; subcutaneous, 50 × 5 mg/kg): 19.0% | mean score ([19]; subcutaneous, […] 5 mg/kg): 1.4 | sum of score ([19]; subcutaneous, […] 5 mg/kg): 7 | infectivity level ([19]; subcutaneous, […] 5 mg/kg): 33.3% | ED50 ([20]; po): 0.22 mg/kg | ED50 ([20]; sc): 0.08 mg/kg | ED50 ([21]; po, NA: no activity): 2.1 mg/kg | ED50 ([21]; sc): 0.3 mg/kg | comparative in vivo activity [22]: the most active | MIC [23]: 0.05 µg/mL (≈ 0.118 µM) | MIC [24]: 0.05 µg/mL (≈ 0.118 µM) | MIC [25]: 0.05 µg/mL (≈ 0.118 µM) | MIC [26]: 0.05 µg/mL (≈ 0.118 µM) | MIC [27]: 0.05 µg/mL (≈ 0.118 µM) | MIC [28]: 0.05 µg/mL (≈ 0.118 µM) | MIC [29]: 0.05 µg/mL (≈ 0.118 µM) | MIC [30]: 0.05 µg/mL (≈ 0.118 µM) | MIC [31]: 0.1 µg/mL (≈ 0.235 µM) | MIC [32]: 0.1 µg/mL (≈ 0.235 µM) | MIC [33]: 0.2 µg/mL (≈ 0.471 µM)

Cc1ncc([N+](=O)[O-])n1CCO [Flagyl]
mean score ([19]; oral, 6.3 × 5 mg/kg): 3.4 | sum of score ([19]; oral, 6.3 × 5 mg/kg): 17 | infectivity level ([19]; oral, 6.3 × 5 mg/kg): 81.0% | mean score ([19]; oral, 25 × 5 mg/kg): 2.6 | sum of score ([19]; oral, 25 × 5 mg/kg): 13 | infectivity level ([19]; oral, 25 × 5 mg/kg): 61.9% | mean score ([19]; oral, 100 × 5 mg/kg): 1.6 | sum of score ([19]; oral, 100 × 5 mg/kg): 8 | infectivity level ([19]; oral, 100 × 5 mg/kg): 38.1% | mean score ([19]; oral, […] 5 mg/kg): 4.0 | sum of score ([19]; oral, […] 5 mg/kg): 20 | infectivity level ([19]; oral, […] 5 mg/kg): 95.2% | mean score ([19]; subcutaneous, 0.8 × 5 mg/kg): 4.0 | sum of score ([19]; subcutaneous, 0.8 × 5 mg/kg): 20 | infectivity level ([19]; subcutaneous, 0.8 × 5 mg/kg): 95.2% | mean score ([19]; subcutaneous, 3.1 × 5 mg/kg): 3.4 | sum of score ([19]; subcutaneous, 3.1 × 5 mg/kg): 17 | infectivity level ([19]; subcutaneous, 3.1 × 5 mg/kg): 81.0% | mean score ([19]; subcutaneous, 50 × 5 mg/kg): 2.0 | sum of score ([19]; subcutaneous, 50 × 5 mg/kg): 10 | infectivity level ([19]; subcutaneous, 50 × 5 mg/kg): 47.6% | mean score ([19]; subcutaneous, […] 5 mg/kg): 2.4 | sum of score ([19]; subcutaneous, […] 5 mg/kg): 12 | infectivity level ([19]; subcutaneous, […] 5 mg/kg): 57.1% | ED50 ([20]; po): 60 mg/kg | ED50 ([20]; sc): 31 mg/kg | absorption compared with Bu-2313B [34]: better absorptions than Bu-2313B | concentration at 0.5 h ([35]; po, 25 mg/kg): 8800 ng/mL | concentration at 1 h ([35]; po, 25 mg/kg): 6700 ng/mL | concentration at 3 h ([35]; po, 25 mg/kg): 6100 ng/mL | concentration at 0.5 h ([35]; po, 50 mg/kg): 20000 ng/mL | concentration at 1 h ([35]; po, 50 mg/kg): 15000 ng/mL | concentration at 3 h ([35]; po, 50 mg/kg): 11000 ng/mL | concentration at 0.5 h ([35]; po, 100 mg/kg): 56000 ng/mL | concentration at 1 h ([35]; po, 100 mg/kg): 41000 ng/mL | concentration at 3 h ([35]; po, 100 mg/kg): 24000 ng/mL | concentration at 5 h ([35]; po, 100 mg/kg): 13000 ng/mL | concentration at 0.5 h ([35]; sc, 25 mg/kg): 15000 ng/mL | concentration at 1 h ([35]; sc, 25 mg/kg): 12000 ng/mL | concentration at 2 h ([35]; sc, 25 mg/kg): 8300 ng/mL | concentration at 0.5 h ([35]; sc, 50 mg/kg): 32000 ng/mL | concentration at 1 h ([35]; sc, 50 mg/kg): 26000 ng/mL | concentration at 2 h ([35]; sc, 50 mg/kg): 12000 ng/mL | concentration at 0.5 h ([35]; sc, 100 mg/kg): 121000 ng/mL | concentration at 1 h ([35]; sc, 100 mg/kg): 98000 ng/mL | concentration at 2 h ([35]; sc, 100 mg/kg): 40000 ng/mL
